# Source: US20160206583A1, “AMINO ACID TREATMENT OF SEIZURES” (THE JOHNS HOPKINS UNIVERSITY, priority 2013, published 2016)
# How the values were obtained:
# [1] = test system: kainic acid-induced seizures; test: Kainic acid status epilepticus test; assay type: in vivo, mice
# Method: Male NIH Swiss mice (NCI, Frederick, Md., U.S.A.) aged 3-4 weeks were acclimatized to the animal care facility for 1-5 days and housed four per cage. All mice were fed unrestricted normal rodent chow (Teklad Global 2018SX, Madison, Wis., U.S.A.). Only in experiments lasting 2 weeks, mice were fasted overnight before the D-leucine was administered in drinking water.
# […] Louis, Mo., U.S.A.) or given D-leucine in drinking water (1.5% w/v) for 13 days after an initial overnight fast. […] Louis, Mo., U.S.A.).
# Each mouse was tested for seizures only once. Personnel performing seizure testing and assessments were blinded to treatment group assignments. Seizure tests were performed 3 h following a single dose of D-leucine, 15-25 min after the administration of kainic acid, or after 13 days of D-leucine exposure in drinking water.
# Kainic acid was injected intraperitoneally (22.5-25 mg kainic acid/kg mouse body mass, 5.3 mg/ml PBS, Tocris Bioscience, Ellisville, Mo., U.S.A.) as described previously (Hartman et al., 2012). Mice were observed continuously in plexiglass cages for the duration of the experiment. Seizure behaviors were scored for 2 h using a modified Racine scale (the highest score in a given 5-min block was used): 0, no seizure; 1, immobility; 2, forelimb and/or tail extension; 3, automatisms; 4, forelimb clonus, rearing, and/or falling; 5, repetition of stage 4; 6, tonic-clonic seizures; and 7, death (Hartman et al., 2010). As the mouse behaviors only occur intermittently, the highest seizure score achieved in a 5 min epoch was recorded.
# Probit analyses (used in the 6 Hz test to determine the current where half the mice experienced any seizure behavior, or CC50, was performed using Minitab 16 (State College, Pa., U.S.A.). The level of significance in the 6 Hz test was 0.05. T-tests and one-way ANOVAs were performed using GraphPad Prism 4 (LaJolla, Calif., U.S.A.). In the kainic acid test, one-way ANOVAs were performed for multiple comparisons of 3 treatment groups. When 2 groups were compared in the kainic acid test, the level of significance was 0.01 (because 3-4 parameters were measured simultaneously, this represents a Bonferroni correction of a typical level of significance of 0.05).
# [2] = test system: pentylenetetrazol-induced seizures; settings: Dufour et al., 1999, cited from earlier work
# AMPA receptor = settings: hippocampal neurons; Gong et al., 2007; cited from earlier work
# 6 Hz-induced seizures = test: 6 Hz test; assay type: in vivo, mice; settings: D-leucine 1.5% w/v in drinking water for 13 days
# Method: Male NIH Swiss mice (NCI, Frederick, Md., U.S.A.) aged 3-4 weeks were acclimatized to the animal care facility for 1-5 days and housed four per cage. All mice were fed unrestricted normal rodent chow (Teklad Global 2018SX, Madison, Wis., U.S.A.). Only in experiments lasting 2 weeks, mice were fasted overnight before the D-leucine was administered in drinking water. At 5 weeks of age, mice were injected intraperitoneally with D-leucine 3 mg/kg (“low dose”) or 300 mg/kg (“high dose”) body weight (Sigma-Aldrich, St. Louis, Mo., U.S.A.) or given D-leucine in drinking water (1.5% w/v) for 13 days after an initial overnight fast. […] Probit analyses (used in the 6 Hz test to determine the current where half the mice experienced any seizure behavior, or CC50, was performed using Minitab 16 (State College, Pa., U.S.A.). The level of significance in the 6 Hz test was 0.05. T-tests and one-way ANOVAs were performed using GraphPad Prism 4 (LaJolla, Calif., U.S.A.). In the kainic acid test, one-way ANOVAs were performed for multiple comparisons of 3 treatment groups. When 2 groups were compared in the kainic acid test, the level of significance was 0.01 (because 3-4 parameters were measured simultaneously, this represents a Bonferroni correction of a typical level of significance of 0.05).
# [3] = test system: hexafluorodiethyl ether seizures; settings: Gallagher, 1969; cited from earlier work
# [4] = test system: picrotoxin-induced seizures; settings: rats; Skeie et al., 1994; cited from earlier work
# [5] = test system: maximal electroshock-induced seizures; settings: literature (Peterson, 1991; Kalinichev et al., 2010); cited from earlier work
# [6] = test system: GAERS (Genetic Absence Epilepsy Rats from Strasbourg) Wistar rats; settings: intracerebroventricular or intrathalamic routes; Koerner et al., 1996; cited from earlier work
# amygdala-kindled rats = settings: dose-dependent, Loscher et al., 1994; cited from earlier work
# [7] = CBIO 10 mg/kg 15 min after kainic acid
# [8] = pretreatment, CBIO 10 mg/kg three hours prior to kainic acid
# [9] = D-leucine 300 mg/kg 15 min after kainic acid (after seizure onset)
# [10] = pretreatment, D-leucine 3 mg/kg i.p. 3 h before kainic acid (23.5 mg/kg)
# [11] = pretreatment, D-leucine 300 mg/kg i.p. 3 h before kainic acid (23.5 mg/kg)
# [12] = D-serine 3 mg/kg 15 min after kainic acid
# [13] = D-serine 300 mg/kg 15 min after kainic acid
structure (smiles),measurement,setting,value
"Oc1noc2ccc(Cl)cc12 [CBIO, 5-chloro-benzo[d]isoxazol-3-ol]",maximum seizure score,[1]; [7],no effect
same,mean seizure score,[1]; [7],decrease
same,number of epochs with a seizure stage ≧2,[1]; [7],decrease
same,latency to seizure stage ≧2,[1]; [8],no effect
same,maximum seizure score,[1]; [8],no effect
same,mean seizure score,[1]; [8],decreased
same,number of epochs with a seizure stage ≧2,[1]; [8],decreased
CC(C)CC(=O)C(=O)O [α-ketoisocaproic acid],activity in the PTZ test,[2],not active
CC(C)C[C@@H](N)C(=O)O [D-leucine],kainic acid-induced AMPA receptor-mediated current,AMPA receptor,inactive
same,CC50 (current where half of mice had a convulsion),6 Hz-induced seizures,increased
same,protection against seizures induced by kainic acid,[1]; D-leucine 3 mg/kg 15 min after the onset of seizures (FIGS. 4C-4D),protects against seizures
same,seizure outcome compared with diazepam (10 mg/kg),[1]; D-leucine 3 mg/kg 20 min after kainic acid (25 mg/kg),not inferior to treatment with diazepam
same,mean seizure score,[1]; [9],no effect
same,number of epochs with a seizure score ≧2,[1]; [9],decreased
same,maximum seizure score,"[1]; D-leucine 300 mg/kg 15 min after kainic acid (after seizure onset), trend noted",no effect
same,protection against seizures,"[1]; pretreatment, D-leucine 0.3 mg/kg 3 h before kainic acid (23.5 mg/kg)",did not protect against seizures
same,mean seizure score,[1]; [10],decreased
same,number of epochs with a seizure stage ≧2,[1]; [10],decreased
same,maximum seizure score,"[1]; pretreatment, D-leucine 0.3, 3 or 300 mg/kg vs water, 3 h before kainic acid",no difference between groups
same,latency to onset of seizure stage ≧2,[1]; [11],prolonged
same,mean seizure score,[1]; [11],decreased
same,number of epochs with a seizure stage ≧2,[1]; [11],decreased
CC(C)C[C@H](N)C(=O)O [L-leucine],protection against hexafluorodiethyl ether seizures,[3],not
same,protection against picrotoxin-induced seizures,[4],protects
same,protection against pentylenetetrazol-induced seizures,[2]; rats,protects
N[C@H](CO)C(=O)O [D-serine],kainic acid-induced AMPA receptor-mediated current,AMPA receptor,inhibits
same,protection against maximal electroshock-induced seizures,[5],weak but statistically significant protection
same,effect on spike wave discharges,[6],no effect
same,after discharge thresholds,amygdala-kindled rats,increases
same,maximum seizure score,[1]; [12],decrease
same,mean seizure score,[1]; [12],decrease
same,number of epochs with a seizure stage ≧2,[1]; [12],decrease
same,maximum seizure score,[1]; [13],no effect
same,mean seizure score,[1]; [13],decrease
same,number of epochs with a seizure stage ≧2,[1]; [13],decrease
